Laboratory results reported in patent US20130030001A1 (priority 2008, published 2013).
pIC50: −log10 of the molar value.

Columns and labels:
[1] = molecular target: T1, human muscarinic acetylcholine M3 receptor (Homo sapiens, UniProt P20309); assay: biochemical; assay type: binding
T1 construct: expressed in transfected cells; host or cells: CHO-K1 (Chinese Hamster Ovary) cell membranes

[2] = in vitro; conditions: human, plasma, pH 7.4

T1 sequence (P20309 whole entry): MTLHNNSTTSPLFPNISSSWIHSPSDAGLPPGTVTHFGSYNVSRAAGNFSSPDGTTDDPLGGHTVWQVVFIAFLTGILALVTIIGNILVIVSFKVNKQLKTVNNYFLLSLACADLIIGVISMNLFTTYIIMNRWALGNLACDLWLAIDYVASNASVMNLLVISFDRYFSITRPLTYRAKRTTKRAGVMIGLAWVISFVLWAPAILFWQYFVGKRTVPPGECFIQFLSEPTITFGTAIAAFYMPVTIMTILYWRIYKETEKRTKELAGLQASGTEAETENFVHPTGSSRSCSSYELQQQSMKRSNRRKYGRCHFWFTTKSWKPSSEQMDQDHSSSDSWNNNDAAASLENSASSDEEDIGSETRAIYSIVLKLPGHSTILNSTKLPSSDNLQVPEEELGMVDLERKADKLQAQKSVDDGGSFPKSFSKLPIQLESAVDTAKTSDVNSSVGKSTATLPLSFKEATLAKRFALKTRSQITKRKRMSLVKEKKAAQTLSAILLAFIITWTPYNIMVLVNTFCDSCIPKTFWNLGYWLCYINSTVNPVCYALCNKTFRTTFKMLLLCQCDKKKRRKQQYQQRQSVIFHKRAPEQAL

Row | Structure (SMILES) | pIC50 ([1]; M3 binding IC50) | fraction unbound [2] | pIC50 ([1]; pIC50)
1 | O=C(C[N+]12CCC(CC1)[C@@H](OC(=O)C1(c3cccs3)CCCCCC1)C2)Nc1cnccn1 [Example 11, (R)-1-(Pyrazin-2-ylcarbamoylmethyl)-3-(1-thiophen-2-yl-cycloheptanecarbonyloxy)-1-azonia-bicyclo[2.2.2]octane bromide] | > 8.70 | 0.048 | –
2 | O=C(C[N+]12CCC(CC1)[C@@H](OC(=O)C1(c3ccccc3)CCCCCC1)C2)Nc1ccccn1 [Example 15, (R)-3-(1-Phenyl-cycloheptanecarbonyloxy)-1-(pyridin-2-ylcarbamoylmethyl)-1-azonia-bicyclo[2.2.2]octane bromide] | – | 0.039 | –
3 | O=C(C[N+]12CCC(CC1)[C@@H](OC(=O)C1(c3ccccc3)CCCCCC1)C2)Nc1ccccc1 [Example 21, (R)-1-Phenylcarbamoylmethyl-3-(1-phenyl-cycloheptanecarbonyloxy)-1-azonia-bicyclo[2.2.2]octane bromide] | > 8.70 | 0.006 | –
4 | Cc1cc(NC(=O)C[N+]23CCC(CC2)[C@@H](OC(=O)C2(c4ccccc4)CCCCCC2)C3)ccn1 [Example 20, (R)-1-[(2-Methyl-pyridin-4-ylcarbamoyl)-methyl]-3-(1-phenyl-cycloheptanecarbonyloxy)-1-azonia-bicyclo[2.2.2]octane chloride] | – | 0.018 | –
5 | O=C(C[N+]12CCC(CC1)[C@@H](OC(=O)C1(c3ccccc3)CCCCCC1)C2)Nc1ccc(F)cn1 [Example 17, (R)-1-[(5-Fluoro-pyridin-2-ylcarbamoyl)-methyl]-3-(1-phenyl-cycloheptanecarbonyloxy)-1-azonia-bicyclo[2.2.2]octane chloride] | – | 0.024 | –
6 | O=C(C[N+]12CCC(CC1)[C@@H](OC(=O)C1(c3cccc(F)c3)CCCCCC1)C2)Nc1ccon1 [Example 13, (R)-3-[1-(3-Fluoro-phenyl)-cycloheptanecarbonyloxy]-1-(isoxazol-3-ylcarbamoylmethyl)-1-azonia-bicyclo[2.2.2]octane bromide] | – | 0.068 | 10.10
7 | Cc1ccc(NC(=O)C[N+]23CCC(CC2)[C@@H](OC(=O)C2(c4ccccc4)CCCCCC2)C3)nn1 [Example 49, (R)-1-[(6-Methyl-pyridazin-3-ylcarbamoyl)-methyl]-3-(1-phenyl-cycloheptanecarbonyloxy)-1-azonia-bicyclo[2.2.2]octane bromide] | > 8.70 | – | –
8 | O=C(C[N+]12CCC(CC1)[C@@H](OC(=O)C1(c3ccccc3)CCCCCC1)C2)Nc1ccncc1F [Example 54, (R)-1-[(3-Fluoro-pyridin-4-ylcarbamoyl)-methyl]-3-(1-phenyl-cycloheptanecarbonyloxy)-1-azonia-bicyclo[2.2.2]octane chloride] | > 8.70 | – | –
9 | O=C(C[N+]12CCC(CC1)[C@@H](OC(=O)C1(c3ccccc3)CCCCCC1)C2)Nc1ncccc1F [Example 53, (R)-1-[(3-Fluoro-pyridin-2-ylcarbamoyl)-methyl]-3-(1-phenyl-cycloheptanecarbonyloxy)-1-azonia-bicyclo[2.2.2]octane chloride] | 8.00 to 8.70 | – | –
10 | O=C(O[C@H]1C[N+]2(CCCc3ccncc3)CCC1CC2)C1(c2ccccc2)CCCCCC1 [Example 61, (R)-3-(1-Phenyl-cycloheptanecarbonyloxy)-1-(3-pyridin-4-yl-propyl)-1-azonia-bicyclo[2.2.2]octane bromide] | > 8.70 | – | –
11 | Cc1ccccc1NC(=O)C[N+]12CCC(CC1)[C@@H](OC(=O)C1(c3ccccc3)CCCCCC1)C2 [Example 31, (R)-3-(1-Phenyl-cycloheptanecarbonyloxy)-1-(o-tolylcarbamoyl-methyl)-1-azonia-bicyclo[2.2.2]octane bromide] | 8.00 to 8.70 | – | –
12 | O=C(O[C@H]1C[N+]2(CCOCCc3ccccc3)CCC1CC2)C1(c2ccccc2)CCCCCC1 [Example 37, (R)-1-(2-Phenethyloxy-ethyl)-3-(1-phenyl-cycloheptanecarbonyloxy)-1-azonia-bicyclo[2.2.2]octane bromide] | > 8.70 | – | –
13 | O=C(C[N+]12CCC(CC1)[C@@H](OC(=O)C1(c3ccccc3)CCCCCC1)C2)Nc1cncc(F)c1 [Example 28, (R)-1-[(5-Fluoro-pyridin-3-ylcarbamoyl)-methyl]-3-(1-phenyl-cycloheptanecarbonyloxy)-1-azonia-bicyclo[2.2.2]octane chloride] | 8.00 to 8.70 | – | –
14 | O=C(C[N+]12CCC(CC1)[C@@H](OC(=O)C1(c3cccs3)CCCCCC1)C2)Nc1noc2ccccc12 [Example 10, (R)-1-(Benzo[d]isoxazol-3-ylcarbamoylmethyl)-3-(1-thiophen-2-yl-cycloheptanecarbonyloxy)-1-azonia-bicyclo[2.2.2]octane chloride] | > 8.70 | – | –
